# Experimental data published in patent US20240116877A1, “KIT KINASE INHIBITORS AND METHODS OF USE THEREOF” (Deciphera Pharmaceuticals, LLC, priority 2021, published 2024).
# Read-outs that look alike come from different tables or passages of the source.
# Legend:
# Ba/F3 KIT mutant cells = assay: Ba/F3 mutant KIT Cell Proliferation Assays (resazurin); format: cell-based; conditions: Mus musculus, BaF3
# Summary of the method: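 IC50 values come from resazurin fluorescence (ex 540, em 600) after 5 h dye exposure, added as a 440 μM solution. Cells were IL-3-independent Ba/F3 expressing mutant KIT from a lentiviral vector, puromycin-selected.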
# c-KIT kinase (uKIT) = c-KIT kinase (uKIT) (Homo sapiens (Human), UniProt P10721); assay: Biochemical Assay for uKIT (coupled pyruvate kinase/lactate dehydrogenase assay); conditions: Inhibition of biochemical activity of uKIT kinase; 1 mM ATP
# c-KIT kinase (uKIT), sequence (P10721 other isoform, or with tags, fused parts or gaps): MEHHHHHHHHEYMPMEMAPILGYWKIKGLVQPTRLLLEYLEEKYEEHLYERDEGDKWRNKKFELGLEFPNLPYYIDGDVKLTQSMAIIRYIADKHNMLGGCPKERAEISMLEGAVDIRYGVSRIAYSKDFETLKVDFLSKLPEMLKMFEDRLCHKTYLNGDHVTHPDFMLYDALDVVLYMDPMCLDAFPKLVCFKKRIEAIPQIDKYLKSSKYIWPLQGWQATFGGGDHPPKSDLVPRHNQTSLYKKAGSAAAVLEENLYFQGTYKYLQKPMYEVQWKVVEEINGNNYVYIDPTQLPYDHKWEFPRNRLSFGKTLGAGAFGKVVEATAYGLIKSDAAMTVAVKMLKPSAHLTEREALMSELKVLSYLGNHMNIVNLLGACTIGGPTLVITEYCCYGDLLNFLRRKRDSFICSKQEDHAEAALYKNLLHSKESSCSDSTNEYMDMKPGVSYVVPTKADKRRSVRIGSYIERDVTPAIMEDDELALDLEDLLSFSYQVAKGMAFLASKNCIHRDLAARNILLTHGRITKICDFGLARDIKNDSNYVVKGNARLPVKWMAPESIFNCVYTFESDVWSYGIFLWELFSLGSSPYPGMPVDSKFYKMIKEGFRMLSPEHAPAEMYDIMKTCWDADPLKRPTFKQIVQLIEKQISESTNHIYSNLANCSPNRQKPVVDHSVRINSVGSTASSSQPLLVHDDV
# Summary of the method: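 Continuous coupled PK/LDH assay following NADH oxidation at 340 nm for 6 h at 30° C, with 16 nM or 4.36 nM KIT (two constructs), 0.7 mg/mL PE4Y, 1 mM ATP, pH 7.5. Rates from the 2-3 h window converted to percent inhibition versus controls; IC50 fitted.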
# GIST 430 cells = assay: GIST 430 Cell Proliferation Assay (resazurin); format: cell-based; conditions: Homo sapiens; GIST430 cell proliferation
# Summary of the method: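 Five thousand cells per well were exposed to serially diluted compound in complete growth medium for 115 h at 37 degrees Celsius, 5% CO2. Resazurin was then added for a further 5 h, fluorescence read at 540 nm excitation/600 nm emission, and IC50 values calculated.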
# [1] = Ba/F3 KIT AYdup-V654A mutant cell proliferation, read-out: AYdup-V654A IC50
# [2] = Ba/F3 KIT exon11del-V654A mutant cell proliferation, read-out: exon11del-V654A IC50
# [3] = Ba/F3 KIT exon11del-Y823D mutant cell proliferation, read-out: exon11del-Y823D IC50
# [4] = Ba/F3 KIT AYdup mutant cell proliferation, read-out: AYdup IC50
# [5] = Ba/F3 KIT AYdup-D816G mutant cell proliferation, read-out: AYdup-D816G IC50
IC50 (Ba/F3 KIT mutant cells; [1]),IC50 (Ba/F3 KIT mutant cells; [2]),IC50 (Ba/F3 KIT mutant cells; [3]),IC50 (c-KIT kinase (uKIT)),IC50 (Ba/F3 KIT mutant cells; [4]),IC50 (Ba/F3 KIT mutant cells; [5]),Compound,IC50 (GIST 430 cells)
0.01 to 0.1 µM,≤ 0.01 µM,0.1 to 1 µM,0.01 to 0.1 µM,–,–,COCCOc1cc(F)c2c(Nc3ccc(NC(=O)CC(=O)NCC4CC4)cc3)ncnc2c1 [Example 77],0.01 to 0.1 µM
0.01 to 0.1 µM,0.1 to 1 µM,0.1 to 1 µM,0.01 to 0.1 µM,–,–,COCCOc1cc(F)c2c(Nc3ccc(NC(=O)CC(=O)N4CCC[C@H]4C)cc3)ncnc2c1 [Example 197],0.01 to 0.1 µM
0.1 to 1 µM,0.01 to 0.1 µM,–,0.1 to 1 µM,–,–,COCCOc1cc(F)c2c(Nc3ccc(NC(=O)CC(=O)N[C@H]4C[C@@H](OC)C4)cc3)ncnc2c1 [Example 116],0.1 to 1 µM
0.01 to 0.1 µM,0.01 to 0.1 µM,> 1 µM,0.01 to 0.1 µM,–,–,COCCOc1cc(F)c2c(Nc3ccc(NC(=O)CC(=O)NC(C)C)cc3)ncnc2c1 [Example 96],0.01 to 0.1 µM
0.1 to 1 µM,0.1 to 1 µM,0.1 to 1 µM,0.01 to 0.1 µM,–,–,COCCOc1cc(F)c2c(Nc3ccc(NC(=O)CC(=O)N4CCOCC4(C)C)cc3)ncnc2c1 [Example 154],0.01 to 0.1 µM
0.1 to 1 µM,0.1 to 1 µM,0.1 to 1 µM,0.01 to 0.1 µM,–,–,COCCOc1cc(F)c2c(Nc3ccc(NC(=O)CC(=O)N4CCCC4C(C)(C)C)cc3)ncnc2c1 (stereo not shown) [Example 189],0.1 to 1 µM
0.01 to 0.1 µM,≤ 0.01 µM,0.01 to 0.1 µM,≤ 0.01 µM,≤ 0.01 µM,0.01 to 0.1 µM,COCCOc1cc(F)c2c(Nc3ccc(NC(=O)CC(=O)NC4CCCCC4)cc3)ncnc2c1 [Example 97],≤ 0.01 µM
0.01 to 0.1 µM,0.1 to 1 µM,0.1 to 1 µM,0.01 to 0.1 µM,–,–,COCCOc1cc(F)c2c(Nc3ccc(NC(=O)CC(=O)N4CCCC(F)(F)C4)cc3)ncnc2c1 [Example 165],0.01 to 0.1 µM
0.1 to 1 µM,0.1 to 1 µM,> 1 µM,0.1 to 1 µM,–,–,COCCOc1cc(F)c2c(Nc3ccc(NC(=O)CC(=O)NC4CC5(COC5)C4)cc3)ncnc2c1 [Example 114],0.1 to 1 µM
0.01 to 0.1 µM,0.01 to 0.1 µM,0.1 to 1 µM,≤ 0.01 µM,–,–,COCCOc1cc(F)c2c(Nc3ccc(NC(=O)CC(=O)NCC4CCCCC4)cc3)ncnc2c1 [Example 91],0.01 to 0.1 µM
0.1 to 1 µM,0.01 to 0.1 µM,> 1 µM,0.1 to 1 µM,–,–,COCCOc1cc(F)c2c(Nc3ccc(NC(=O)CC(=O)NCC4CCOCC4)cc3)ncnc2c1 [Example 78],0.1 to 1 µM
0.1 to 1 µM,0.01 to 0.1 µM,> 1 µM,0.01 to 0.1 µM,–,–,COCCOc1cc(F)c2c(Nc3ccc(NC(=O)CC(=O)NCC4(C)CCCO4)cc3)ncnc2c1 (stereo not shown) [Example 110],0.01 to 0.1 µM
≤ 0.01 µM,0.1 to 1 µM,0.1 to 1 µM,0.01 to 0.1 µM,–,–,CCN(CC)C(=O)CC(=O)Nc1ccc(Nc2ncnc3cc(OCCOC)cc(F)c23)cc1 [Example 184],0.01 to 0.1 µM
0.1 to 1 µM,0.01 to 0.1 µM,> 1 µM,0.1 to 1 µM,–,–,COCCOc1cc(F)c2c(Nc3ccc(NC(=O)CC(=O)NC[C@H]4CCCO4)cc3)ncnc2c1 [Example 101],0.1 to 1 µM
0.01 to 0.1 µM,0.1 to 1 µM,0.1 to 1 µM,0.01 to 0.1 µM,–,–,COCCOc1cc(F)c2c(Nc3ccc(NC(=O)CC(=O)N4CCCC4C(F)(F)F)cc3)ncnc2c1 (stereo not shown) [Example 169],0.01 to 0.1 µM
> 1 µM,> 1 µM,> 1 µM,0.1 to 1 µM,–,–,COCCOc1cc(F)c2c(Nc3ccc(NC(=O)CC(=O)N4CCOCC4)cc3)ncnc2c1 [Example 185],0.1 to 1 µM
0.01 to 0.1 µM,0.01 to 0.1 µM,0.1 to 1 µM,0.01 to 0.1 µM,–,–,COCCOc1cc(F)c2c(Nc3ccc(NC(=O)CC(=O)NC4CC(F)(F)C4)cc3)ncnc2c1 [Example 113],0.01 to 0.1 µM

# Second part, the compound before the results:
Compound,IC50 (Ba/F3 KIT mutant cells; [1]),IC50 (Ba/F3 KIT mutant cells; [2]),IC50 (Ba/F3 KIT mutant cells; [3]),IC50 (c-KIT kinase (uKIT)),IC50 (Ba/F3 KIT mutant cells; [4]),IC50 (Ba/F3 KIT mutant cells; [5]),IC50 (GIST 430 cells)
CC(C)(F)CCNC(=O)Nc1ccc(Nc2ncnc3cc(OC4COC4)cc(F)c23)cc1 [Example 175],0.01 to 0.1 µM,0.01 to 0.1 µM,0.01 to 0.1 µM,≤ 0.01 µM,–,–,0.01 to 0.1 µM
COCCOc1cc(F)c2c(Nc3ccc(NC(=O)CCCC(C)C)cc3)ncnc2c1 [Example 31],0.01 to 0.1 µM,0.01 to 0.1 µM,0.1 to 1 µM,≤ 0.01 µM,0.01 to 0.1 µM,≤ 0.01 µM,0.01 to 0.1 µM
COCCOc1cc(F)c2c(Nc3ccc(NC(=O)NCCC4CCOCC4)cc3)ncnc2c1 [Example 61],0.01 to 0.1 µM,≤ 0.01 µM,0.01 to 0.1 µM,0.01 to 0.1 µM,≤ 0.01 µM,≤ 0.01 µM,≤ 0.01 µM
COCCOc1cc(F)c2c(Nc3ccc(NC(=O)NCCC(C)C)cc3)ncnc2c1 [Example 18],≤ 0.01 µM,≤ 0.01 µM,0.01 to 0.1 µM,≤ 0.01 µM,≤ 0.01 µM,≤ 0.01 µM,0.01 to 0.1 µM
COCCOc1cc(F)c2c(Nc3ccc(NC(=O)COCC4CCCO4)cc3)ncnc2c1 (stereo not shown) [Example 58],0.1 to 1 µM,0.1 to 1 µM,> 1 µM,0.01 to 0.1 µM,–,–,0.01 to 0.1 µM
COCCOc1cc(F)c2c(Nc3ccc(NC(=O)COCC(F)(F)F)cc3)ncnc2c1 [Example 48],0.1 to 1 µM,0.1 to 1 µM,0.1 to 1 µM,0.1 to 1 µM,0.01 to 0.1 µM,0.1 to 1 µM,0.1 to 1 µM
COCCOc1cc(F)c2c(Nc3ccc(NC(=O)CNC(=O)CC(C)(C)C)cc3)ncnc2c1 [Example 102],0.01 to 0.1 µM,0.01 to 0.1 µM,0.01 to 0.1 µM,0.01 to 0.1 µM,≤ 0.01 µM,0.01 to 0.1 µM,≤ 0.01 µM
"CO[C@@H](C)COc1cc(F)c2c(Nc3ccc(NC(=O)NCCC(C)(C)F)cc3)ncnc2c1 [Example 7, (S)-1-(3-fluoro-3-methylbutyl)-3-(4-((5-fluoro-7-(2-methoxypropoxy)quinazolin-4-yl)amino)phenyl)urea]",0.01 to 0.1 µM,0.01 to 0.1 µM,0.01 to 0.1 µM,≤ 0.01 µM,–,–,0.01 to 0.1 µM
COCCOc1cc(F)c2c(Nc3ccc(NC(=O)C4(C(=O)N(C)CC(C)(C)C)CC4)cc3)ncnc2c1 [Example 50],0.1 to 1 µM,> 1 µM,> 1 µM,0.1 to 1 µM,0.1 to 1 µM,> 1 µM,0.1 to 1 µM
COCCOc1cc(F)c2c(Nc3ccc(NC(=O)NCCC(C)(C)F)cc3F)ncnc2c1 [Example 65],0.01 to 0.1 µM,≤ 0.01 µM,0.1 to 1 µM,≤ 0.01 µM,–,–,0.01 to 0.1 µM
CC(C)(F)CCNC(=O)Nc1ccc(Nc2ncnc3cc(OCCCN4CCOCC4)cc(F)c23)cc1 [Example 195],0.01 to 0.1 µM,0.01 to 0.1 µM,0.01 to 0.1 µM,≤ 0.01 µM,–,–,≤ 0.01 µM
COCCCOc1cc(F)c2c(Nc3ccc(NC(=O)NCCC(C)(C)F)cc3)ncnc2c1 [Example 120],0.01 to 0.1 µM,≤ 0.01 µM,0.1 to 1 µM,≤ 0.01 µM,–,–,0.01 to 0.1 µM
COCCOc1cc(F)c2c(Nc3ccc(NC(=O)COCC4CCCC4)cc3)ncnc2c1 [Example 56],0.01 to 0.1 µM,0.01 to 0.1 µM,0.01 to 0.1 µM,≤ 0.01 µM,–,–,≤ 0.01 µM
COCCOc1cc(F)c2c(Nc3ccc(NC(=O)CCC(C)(C)OC)cc3)ncnc2c1 [Example 28],0.01 to 0.1 µM,0.01 to 0.1 µM,0.1 to 1 µM,0.01 to 0.1 µM,–,0.01 to 0.1 µM,0.01 to 0.1 µM
COCCOc1cc(OC)c2c(Nc3ccc(NC(=O)NCCC(C)(C)C#N)cc3)ncnc2c1 [Example 182],0.01 to 0.1 µM,0.01 to 0.1 µM,0.01 to 0.1 µM,0.01 to 0.1 µM,–,–,0.01 to 0.1 µM
"COCCCc1ccc2c(Nc3ccc(NC(=O)NCCC(C)(C)F)cc3)cnnc2c1 [Example 190, 1-(3-fluoro-3-methylbutyl)-3-(4-((7-(3-methoxypropyl)cinnolin-4-yl)amino)phenyl)urea]",0.01 to 0.1 µM,0.01 to 0.1 µM,0.01 to 0.1 µM,0.01 to 0.1 µM,–,–,0.01 to 0.1 µM
CC(C)(F)CCNC(=O)Nc1ccc(Nc2ncnc3cc(OCCC4COC4)cc(F)c23)cc1 [Example 159],0.01 to 0.1 µM,0.01 to 0.1 µM,0.01 to 0.1 µM,≤ 0.01 µM,–,–,0.01 to 0.1 µM
CO[C@H](C)COc1cc(F)c2c(Nc3ccc(NC(=O)NCCC(C)(C)F)cc3)ncnc2c1 [Example 156],0.01 to 0.1 µM,0.01 to 0.1 µM,0.01 to 0.1 µM,≤ 0.01 µM,≤ 0.01 µM,0.01 to 0.1 µM,0.01 to 0.1 µM
COC[C@@H](C)Oc1cc(F)c2c(Nc3ccc(NC(=O)NCCC(C)(C)F)cc3)ncnc2c1 [Example 155],0.01 to 0.1 µM,0.01 to 0.1 µM,0.1 to 1 µM,≤ 0.01 µM,–,–,0.1 to 1 µM
